Data reported in a melting point compilation (Tetko et al.).

| melting point [°C] | Compound |
| --- | --- |
| 90 to 91 | COc1ccccc1N1CCN(CC(C)N(C(=O)C2CCCCC2)c2ccccn2)CC1 (centres undefined) |
| 158 to 159 | COc1ccc(N=C(CNc2ccc(OC)cc2)Nc2ccc(OC)cc2)cc1 |
| 218 to 221 | Cc1ccc(Sc2ncccc2C(=O)O)cc1 |
| 113 to 114 | Cc1nc(-c2ccc(N)cc2)no1 |
| 72 to 74 | Nc1cccc(CN2CCCC2)c1 |
| 254 | O=C1OC(c2ccc(O)c3ccccc23)(c2ccc(O)c3ccccc23)c2ccccc21 |
| 177 to 181 | CC(CN)C(=O)O (racemic) |
| 263 | O=c1[nH]c(=O)n(C2CC(O)C(CO)O2)cc1I (centres undefined) |
| 119 | Cc1cccnc1C(=O)O |
| 83.1 | CCCCCCCCCCCCCCN |
| 115 | O=C1OC(=O)c2cc([N+](=O)[O-])ccc21 |
| 142 to 143 | COC(=O)c1ccc(OCNC(=O)c2ccccc2)cc1 |
| -18 | CCCCCC#CCO |
| 107 to 111 | COc1ccc2c(c1)C(=O)CC2 |
| 101 | COC(=O)c1c(OC)ccc(OC)c1C(=O)OC |
| 158 | COc1ccc(/N=N/c2c(N)nn3c(C(F)(F)F)cc(C)nc23)cc1 |
| 70 | Oc1c(Cl)cc(Cl)c(Cl)c1Cl |
| 112 to 115 | OCc1cccc(CO)n1 |
| 48 to 49 | Nc1cc(Br)ccc1Cl |
| 225 | CC1=C(C(=O)OC(C)C)C(c2cccc([N+](=O)[O-])c2)NC(=S)N1 (centres undefined) |
| 134 to 136 | Oc1c(CN2CCCCC2)ccc2ccccc12 |
| 45.5 | CCCCOc1ccc(OCCCC)cc1 |
| -17 | CCCCCCCCCCCCl |

| melting point [°C] | Compound |
| --- | --- |
| 16 | CC(=O)NCCO |
| 156 to 157 | O=C1CCc2cccc(O)c2C1 |
| 49 | [N-]=[N+]=Nc1ccccc1-c1ccccc1 |
| 88 | CCN(CC(=O)O)C(=O)OC(C)(C)C |
| 201 | Brc1n[nH]c(Br)n1 |
| 136 | CCCCC(=O)OCC(=O)C1(O)Cc2c(O)c3c(c(O)c2C(OC2CC(NC(=O)C(F)(F)F)C(O)C(C)O2)C1)C(=O)c1c(OC)cccc1C3=O (centres undefined) |
| 216 to 219 | Cc1c(C=NO)c(=O)n(-c2ccccc2)n1C |
| 160 to 165 | O=C(O)c1nccc2ccccc12 |
| 40 | Cc1c(Br)cccc1[N+](=O)[O-] |
| 160 to 161 | C/C(CCc1oc2ccc([N+](=O)[O-])cc2c1-c1ccc(C)o1)=N/O |
| 149 | O=CNCC(=O)O |
| 156 | O=c1[nH]sc2ccccc12 |
| 99 | c1cc2c3c(cccc3c1)CNC2 |
| 67 to 70 | COC(=O)[C@H]1CC[C@H](C(=O)OC)CC1 |
| 118 to 120 | COc1cc(OC(C)=O)c2c(=O)c(O[C@@H]3O[C@H](COC(C)=O)[C@H](OC(C)=O)[C@H](OC(C)=O)[C@@H]3O[C@@H]3O[C@H](C)[C@H](OC(C)=O)[C@H](OC(C)=O)[C@@H]3OC(C)=O)c(-c3ccc(OC(C)=O)cc3)oc2c1 |
| 300 | Cc1nc(N)nc(O)n1 |
| -16 | CCCCCC(O)CC (racemic) |
| 150 to 160 | O=C(O)C(=Cc1cccc([N+](=O)[O-])c1)c1cccc([N+](=O)[O-])c1 |
| 170 | CCCCOC(=O)C1=C(C)NC(=O)NC1c1ccco1 (centres undefined) |
| 58 to 59 | Brc1cccc2cccnc12 |
| 126 to 132 | Cc1cc(Cl)cc([N+](=O)[O-])c1N |
| 160 to 162 | COC(=O)C1=C(C)NC(=O)C1CC(=O)O (centres undefined) |
| 71 | COc1cccc(O)c1C=O |

| melting point [°C] | Compound |
| --- | --- |
| 87 | COc1ccc(CC(=O)O)cc1 |
| 165 | CC(C)N1CSc2nnc(-c3cccc([N+](=O)[O-])c3)n2C1 |
| 51 to 55 | Cc1onc(-c2ccc(F)cc2)c1C(=O)Cl |
| 139 to 141 | c1cc2c(ccc3nonc32)nn1 |
| 202 | O[Si](O)(c1ccccc1)c1ccccc1 |
| 175 | Cc1cc2c(o1)-c1c(oc3c(I)cc(I)cc13)CCC2(C)c1ccccc1 (centres undefined) |
| -18.5 | CCCCCCCCCCCCCCCCOC(C)=O |
| 158 | COc1ccc(C(N)=O)cc1N |
| 121 | COc1cc(C(=O)N2CCOCC2)cc(OC)c1OC |
| 280 | Oc1ccnc2cc(Cl)ccc12 |
| 117 | COc1ccc(F)cc1C#N |
| 210 | COc1cc(OC)c2cc(C(=O)c3cccc4ccccc34)c(=O)oc2c1 |
| 163 | O=C(O)c1c(F)c(F)c(F)c(F)c1C(=O)O |
| -80 | CC=CCCCCC |
| 94 | Cc1cccc(N(C)C(=S)Oc2ccc3c(c2)CCC3)c1 |
| 60 to 62 | O=S(=O)(Cl)Cc1ccccc1Cl |
| 156 | CCOC(=O)Nc1ccc2c(c1)N(C(=O)CCN1CCOCC1)c1ccccc1S2 |
| 63 | CCSc1ccc2c(c1)N(CCCN1CCN(C)CC1)c1ccccc1S2 |
| 105 | C(#Cc1ccc(CCc2ccccc2)cc1)c1ccccc1 |
| 85 | Cc1ccc(C#N)cn1 |
| 112 | CNC(=O)COC(=O)c1ccccc1 |
| 284 to 287 | O=C(O)c1csc2ccc(Br)cc12 |
| 135 | CCOc1ccc(NC(=O)C(F)(F)C(F)(F)C(F)(F)C(F)(F)C(F)(F)C(F)(F)C(F)(F)C(F)(F)F)cc1 |

| melting point [°C] | Compound |
| --- | --- |
| 64 to 67 | O=C(CCCC(=O)c1ccccc1)c1ccccc1 |
| 80 | O=C(OCc1ccccc1)ON1C(=O)CCC1=O |
| 146 to 148 | OCc1cc(O)ccc1I |
| 160 to 165 | O=C(O)c1c(O)cccc1O |
| 125 to 127 | CN(C)c1ccc(C=O)c(F)c1C#N |
| 107 to 110 | NC(=S)NCCN1CCCCC1 |
| 305 to 306 | Nc1nn2c(C(F)(F)F)cc(=O)[nH]c2c1/N=N/c1cccc(F)c1 |
| 155 | Ic1ccc(I)nc1 |
| 172 to 178 | Oc1ccc(O)c2c1C1CCC2C1 |
| 65 | Cc1ccc(C(c2ccc(C)o2)c2ccccc2O)o1 |
| 114 | Cc1ccc(NC(=O)CCC2C(=O)C3(C)CCC2C3(C)C)cc1 (centres undefined) |
| 145 to 148 | CCOC(=O)c1c2n(n(-c3ccc([N+](=O)[O-])cc3)c1=N)C(=O)CS2 |
| 172 to 174 | CC(=O)N1CCc2cc(S(=O)(=O)Cl)ccc21 |
| -165 | CCC(C)S (centres undefined) |
| 116 | COC(=O)C1(S(=O)(=O)c2ccc(Cl)cc2)CC1 |
| 24 to 25 | Clc1nc(Br)ns1 |
| 266 | O=[N+]([O-])c1ccc2c(O)c(-c3cccc(-c4[nH]c5cc([N+](=O)[O-])ccc5c4O)c3)[nH]c2c1 |
| 92 to 95 | Cc1onc(-c2c(Cl)cccc2Cl)c1C(=O)Cl |
| 170 to 171 | CCN(CC)CC(=O)Nc1sc2c(c1C#N)CCCC2 |
| -19 | CCN(CCO)c1cccc(C)c1 |
| 155 | O=C1CSC2(CCN(CCCN3c4ccccc4Sc4ccc(Cl)cc43)CC2)N1 |
| 215 to 217 | [O-][N+]1=C(c2ccccn2)/C(=N\O)c2ccccc21 |
| 72 | COc1c(F)cc(N)cc1Br |

| melting point [°C] | Compound |
| --- | --- |
| 136 to 137 | NC(=S)Nc1ccccc1[N+](=O)[O-] |
| 90 to 93 | Cc1ccc(S(=O)(=O)OCCCOS(=O)(=O)c2ccc(C)cc2)cc1 |
| 190 | c1ccc2c(c1)NC1(CCCC1)N2 |
| 195 to 201 | Cc1ccc(O)c(I)n1 |
| 48 to 50 | Cc1sc(C2CCN(C(=O)OC(C)(C)C)CC2)nc1CC(=O)O |
| 143 | O=C(O)C=Cc1ccco1 |
| 71 | O=[N+]([O-])c1ccc(Cc2ccncc2)cc1 |
| 211 | Nc1c(C(=O)O)cccc1[N+](=O)[O-] |
| 197 | BrCc1c(CBr)c(CBr)c2ccccc2c1CBr |
| 250 to 251 | O=C1C(=C2C(=Cc3coc4ccccc4c3=O)C(=O)c3ccccc32)C(=O)c2ccccc21 |
| 179 | CC(=O)Nc1ccc(C=CC(=O)c2ccccc2)cc1 |
| 162 | O=C(O)c1ccc(Oc2ccccc2)cc1 |
| 226 | COc1cc(Cc2cnc(N)nc2N)cc(OC)c1Br |
| 176 | CC(CCC(=O)O)C1CCC2C3C(=O)CC4CCCCC4(C)C3CC(=O)C12C (centres undefined) |
| 67 | OC(Cc1ccccc1)c1ccccc1 (centres undefined) |
| 199 | O=[N+]([O-])c1cccc(-c2nnc3n2NC(c2ccc(Cl)cc2)S3)c1 (centres undefined) |
| 220 | C[C@H](CC=C(c1ccccc1)c1ccccc1)[C@H]1CC[C@H]2[C@@H]3C(O)CC4CC(O)CC[C@]4(C)[C@H]3CC(O)[C@]12C (some centres undefined) |
| 121 | CN(C)c1ccc(CCC2CCc3ccccc3N2C(=O)c2ccccc2)cc1 (centres undefined) |
| 172 | CC1=C(CCC(=O)O)c2cc3nc(cc4[nH]c(cc5[nH]c(cc1n2)c(C)c5C(C)O)c(C)c4C(C)O)C(C)=C3CCC(=O)O (centres undefined) |
| 102 | COc1c(OC)c(OC(C)=O)c2cc(Br)ccc2c1OC(C)=O |
| -6 | CCc1ccccc1-c1ccccc1 |
| 69.5 | COc1c(OC)c(OC(C)=O)c2c(OC)cccc2c1OC(C)=O |
| 206 | O=C(O)c1cc2ccccc2[nH]1 |

| Compound | melting point [°C] |
| --- | --- |
| O=C1C(Cl)=C(Cl)C(=O)N1c1ccc(F)cc1 | 241 |
| CC(C)NCC(O)c1ccc([N+](=O)[O-])cc1 (centres undefined) | 98 |
| CC(=NNc1nc(C)cc(C)n1)c1ccccc1C | 176 |
| CC(C)(C)N(NC(=O)c1ccccc1)C(=O)c1ccccc1C(F)(F)F | 172 |
| CC(C)c1ccc(NC(=O)N(C)C)cc1 | 158 |
| O=C(O)C1(Cl)CC2C=CC1C2 (centres undefined) | 139 to 141 |
| CC(=O)OC1CCC2C3CCC45OC4C(=O)C=CC5(O)C3CCC12C (centres undefined) | 178 |
| Cc1nc(CCl)c(C)o1 | 34 to 37 |
| Clc1c(Cl)c(Cl)c2c(oc3ccccc32)c1Cl | 169 |
